# Measurements from PubChem BioAssay (NCI).
#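 96-well plates; 48 h exposure; 5 concentrations. Endpoints by linear interpolation between flanking doses. Not reached: highest tested concentration assigned. TGI: concentration producing complete growth inhibition.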
# Legend:
# Assay in all cases: NCI-60 cell line screen, 48 h
# K-562 leukemia = tested on: K-562 leukemia
# SF-295 CNS = tested on: SF-295 CNS
# UACC-62 melanoma = tested on: UACC-62 melanoma
# ACHN renal = tested on: ACHN renal
# LOX IMVI melanoma = tested on: LOX IMVI melanoma
# CCRF-CEM leukemia = tested on: CCRF-CEM leukemia
# M14 melanoma = tested on: M14 melanoma
# KM12 colon = tested on: KM12 colon
# UACC-257 melanoma = tested on: UACC-257 melanoma
# RPMI-8226 leukemia = tested on: RPMI-8226 leukemia
# CAKI-1 renal = tested on: CAKI-1 renal
# RXF 393 renal = tested on: RXF 393 renal
# BT-549 breast = tested on: BT-549 breast
# SK-OV-3 ovarian = tested on: SK-OV-3 ovarian
# HCC-2998 colon = tested on: HCC-2998 colon
# 786-0 renal = tested on: 786-0 renal
# HOP-62 NSCLC = tested on: HOP-62 NSCLC
# MCF7 breast = tested on: MCF7 breast
# EKVX NSCLC = tested on: EKVX NSCLC
# SW-620 colon = tested on: SW-620 colon
# SR leukemia = tested on: SR leukemia
# MDA-MB-231 breast = tested on: MDA-MB-231 breast
# TK-10 renal = tested on: TK-10 renal
# NCI-H23 lung = tested on: NCI-H23 lung
# OVCAR-3 ovarian = tested on: OVCAR-3 ovarian
# NCI-H226 lung = tested on: NCI-H226 lung
# IGROV1 ovarian = tested on: IGROV1 ovarian
# HCT-15 colon = tested on: HCT-15 colon
# DU-145 prostate = tested on: DU-145 prostate
# MOLT-4 leukemia = tested on: MOLT-4 leukemia
# T-47D breast = tested on: T-47D breast
# PC-3 prostate = tested on: PC-3 prostate
# MDA-N = tested on: MDA-N
# UO-31 renal = tested on: UO-31 renal
# HL-60(TB) leukemia = tested on: HL-60(TB) leukemia
# NCI-H460 lung = tested on: NCI-H460 lung
# OVCAR-4 ovarian = tested on: OVCAR-4 ovarian
# SK-MEL-28 melanoma = tested on: SK-MEL-28 melanoma
# SNB-19 CNS = tested on: SNB-19 CNS
# SF-268 CNS = tested on: SF-268 CNS
# HOP-92 NSCLC = tested on: HOP-92 NSCLC
# SK-MEL-5 melanoma = tested on: SK-MEL-5 melanoma
# HS 578T breast = tested on: HS 578T breast
# A549 NSCLC = tested on: A549 NSCLC
# SN12C renal = tested on: SN12C renal
# MDA-MB-435 = tested on: MDA-MB-435
# U251 CNS = tested on: U251 CNS
# NCI-H522 lung = tested on: NCI-H522 lung
# HCT-116 colon = tested on: HCT-116 colon
# OVCAR-5 ovarian = tested on: OVCAR-5 ovarian
# SF-539 CNS = tested on: SF-539 CNS
# A498 renal = tested on: A498 renal
# COLO 205 colon = tested on: COLO 205 colon
# MALME-3M melanoma = tested on: MALME-3M melanoma
# HT29 colon = tested on: HT29 colon
# SK-MEL-2 melanoma = tested on: SK-MEL-2 melanoma
smiles,measurement,setting,value
Brc1ccc(N=NN2CCCC2)cc1,TGI,K-562 leukemia,> 100 µM
same,TGI,SF-295 CNS,> 100 µM
same,TGI,UACC-62 melanoma,> 100 µM
same,TGI,ACHN renal,> 100 µM
same,TGI,LOX IMVI melanoma,> 100 µM
same,TGI,CCRF-CEM leukemia,> 100 µM
same,TGI,M14 melanoma,> 100 µM
same,TGI,KM12 colon,> 100 µM
same,TGI,UACC-257 melanoma,> 100 µM
same,TGI,RPMI-8226 leukemia,> 100 µM
same,TGI,CAKI-1 renal,> 100 µM
same,TGI,RXF 393 renal,> 100 µM
same,TGI,BT-549 breast,> 100 µM
same,TGI,SK-OV-3 ovarian,> 100 µM
same,TGI,HCC-2998 colon,> 100 µM
same,TGI,786-0 renal,> 100 µM
same,TGI,HOP-62 NSCLC,> 100 µM
same,TGI,MCF7 breast,> 100 µM
same,TGI,EKVX NSCLC,> 100 µM
same,TGI,SW-620 colon,> 100 µM
same,TGI,SR leukemia,> 100 µM
same,TGI,MDA-MB-231 breast,> 100 µM
same,TGI,TK-10 renal,> 100 µM
same,TGI,NCI-H23 lung,> 100 µM
same,TGI,OVCAR-3 ovarian,> 100 µM
same,TGI,NCI-H226 lung,> 100 µM
same,TGI,IGROV1 ovarian,> 100 µM
same,TGI,HCT-15 colon,> 100 µM
same,TGI,DU-145 prostate,> 100 µM
same,TGI,MOLT-4 leukemia,> 100 µM
same,TGI,T-47D breast,97.3 µM
same,TGI,PC-3 prostate,> 100 µM
same,TGI,MDA-N,> 100 µM
same,TGI,UO-31 renal,> 100 µM
same,TGI,HL-60(TB) leukemia,> 100 µM
same,TGI,NCI-H460 lung,> 100 µM
same,TGI,OVCAR-4 ovarian,> 100 µM
same,TGI,SK-MEL-28 melanoma,> 100 µM
same,TGI,SNB-19 CNS,> 100 µM
same,TGI,SF-268 CNS,> 100 µM
same,TGI,HOP-92 NSCLC,> 100 µM
same,TGI,SK-MEL-5 melanoma,> 100 µM
same,TGI,HS 578T breast,> 100 µM
same,TGI,A549 NSCLC,> 100 µM
same,TGI,SN12C renal,> 100 µM
same,TGI,MDA-MB-435,> 100 µM
same,TGI,U251 CNS,> 100 µM
same,TGI,NCI-H522 lung,> 100 µM
same,TGI,HCT-116 colon,> 100 µM
same,TGI,OVCAR-5 ovarian,> 100 µM
same,TGI,SF-539 CNS,> 100 µM
same,TGI,A498 renal,> 100 µM
same,TGI,COLO 205 colon,> 100 µM
same,TGI,MALME-3M melanoma,> 100 µM
same,TGI,HT29 colon,> 100 µM
same,TGI,SK-MEL-2 melanoma,> 100 µM
COc1cccc2c(Nc3ccc(S(=O)(=O)Nc4ncccn4)cc3)c3ccc([N+](=O)[O-])cc3nc12,TGI,K-562 leukemia,> 100 µM
same,TGI,SF-295 CNS,> 100 µM
same,TGI,UACC-62 melanoma,> 100 µM
same,TGI,ACHN renal,> 100 µM
same,TGI,LOX IMVI melanoma,> 100 µM
same,TGI,CCRF-CEM leukemia,> 100 µM
same,TGI,M14 melanoma,> 100 µM
same,TGI,KM12 colon,> 100 µM
same,TGI,UACC-257 melanoma,> 100 µM
same,TGI,RPMI-8226 leukemia,> 100 µM
same,TGI,CAKI-1 renal,> 100 µM
same,TGI,RXF 393 renal,> 100 µM
same,TGI,BT-549 breast,> 100 µM
same,TGI,SK-OV-3 ovarian,> 100 µM
same,TGI,HCC-2998 colon,> 100 µM
same,TGI,786-0 renal,> 100 µM
same,TGI,HOP-62 NSCLC,> 100 µM
same,TGI,MCF7 breast,> 100 µM
same,TGI,EKVX NSCLC,> 100 µM
same,TGI,SW-620 colon,> 100 µM
same,TGI,SR leukemia,13.9 µM
same,TGI,MDA-MB-231 breast,> 100 µM
same,TGI,TK-10 renal,> 100 µM
same,TGI,NCI-H23 lung,> 100 µM
same,TGI,OVCAR-3 ovarian,> 100 µM
same,TGI,NCI-H226 lung,> 100 µM
same,TGI,IGROV1 ovarian,> 100 µM
same,TGI,HCT-15 colon,> 100 µM
same,TGI,DU-145 prostate,> 100 µM
same,TGI,MOLT-4 leukemia,81.2 µM
same,TGI,T-47D breast,> 100 µM
same,TGI,PC-3 prostate,> 100 µM
same,TGI,MDA-N,> 100 µM
same,TGI,UO-31 renal,> 100 µM
same,TGI,HL-60(TB) leukemia,88.6 µM
same,TGI,NCI-H460 lung,> 100 µM
same,TGI,OVCAR-4 ovarian,> 100 µM
same,TGI,SK-MEL-28 melanoma,> 100 µM
same,TGI,SNB-19 CNS,> 100 µM
same,TGI,SF-268 CNS,> 100 µM
same,TGI,HOP-92 NSCLC,> 100 µM
same,TGI,SK-MEL-5 melanoma,> 100 µM
same,TGI,HS 578T breast,> 100 µM
same,TGI,A549 NSCLC,> 100 µM
same,TGI,SN12C renal,> 100 µM
same,TGI,MDA-MB-435,> 100 µM
same,TGI,U251 CNS,> 100 µM
same,TGI,NCI-H522 lung,> 100 µM
same,TGI,HCT-116 colon,> 100 µM
same,TGI,OVCAR-5 ovarian,> 100 µM
same,TGI,SF-539 CNS,> 100 µM
same,TGI,A498 renal,> 100 µM
same,TGI,COLO 205 colon,> 100 µM
same,TGI,MALME-3M melanoma,> 100 µM
same,TGI,HT29 colon,> 100 µM
same,TGI,SK-MEL-2 melanoma,> 100 µM
